Where a name gives a salt, the structure may show the parent alone.
Experiments:
[1] = system: Aβ40 in Human HEK293 cells stably transfected with human APP wt gene (APP695); assay: Cellular Aβ-lowering assay; assay type: cell-based; conditions: HEK293 cells expressing human APP695, Aβ40 in culture supernatant by ELISA after 18-20 hrs; read-out: Cellular assay Abeta40 IC50
Method: Cellular Aβ-lowering Assay:
Human HEK293 cells which are stably transfected with a vector expressing a cDNA of the human APP wt gene (APP695) were used to assess the potency of the compounds in a cellular assay. The cells were seeded in 96-well microtiter plates in cell culture medium (Iscove, plus 10% (v/v) fetal bovine serum, glutamine, penicillin/streptomycin) to about 80% confluence and the compounds were added at a 10× concentration in 1/10 volume of medium without FCS containing 8% DMSO (final concentration of DMSO was kept at 0.8% v/v). After 18-20 hrs incubation at 37° C. and 5% CO2 in a humidified incubator the culture supernatant was harvested for the determination of Aβ40 concentrations. 96 well ELISA plates (e.g., Nunc MaxiSorb) were coated with monoclonal antibody which specifically recognize the C-terminal end of Aβ40 (Brockhaus et al., NeuroReport 9, 1481-1486; 1998). After blocking of non-specific binding sites with e.g. 1% BSA and washing, the culture supernatants were added in suitable dilutions together with a horseradish peroxidase-coupled Aβ detection antibody (e.g., antibody 4G8, Senetek, Maryland Heights, Mo.) and incubated for 5 to 7 hrs. Subsequently the wells of the microtiter plate were washed extensively with Tris-buffered saline containing 0.05% Tween 20 and the assay was developed with tetramethylbenzidine/H2O2 in citric acid buffer. After stopping the reaction with one volume 1 NH2SO4 the reaction was measured in an ELISA reader at 450 nm wavelength. The concentrations of Aβ in the culture supernatants were calculated from a standard curve obtained with known amounts of pure Aβ peptide.

[2] = molecular target: T1, endogenous cellular BACE2 (human TMEM27 cleavage) in the Ins 1e rat cell line (Rattus norvegicus, UniProt Q6IE75); assay: Assay for BACE inhibition by measuring cellular TMEM27 cleavage; assay type: cell-based; conditions: INS-TMEM27 cells, shed TMEM27 in culture medium by ELISA
T1 construct: endogenous cellular BACE2 in the Ins 1e rat cell line; endogenous in cells; host or cells: INS-TMEM27 (INS1e-derived rat cell line with doxycycline-inducible full-length human TMEM27)
T1 sequence (Q6IE75 63-514): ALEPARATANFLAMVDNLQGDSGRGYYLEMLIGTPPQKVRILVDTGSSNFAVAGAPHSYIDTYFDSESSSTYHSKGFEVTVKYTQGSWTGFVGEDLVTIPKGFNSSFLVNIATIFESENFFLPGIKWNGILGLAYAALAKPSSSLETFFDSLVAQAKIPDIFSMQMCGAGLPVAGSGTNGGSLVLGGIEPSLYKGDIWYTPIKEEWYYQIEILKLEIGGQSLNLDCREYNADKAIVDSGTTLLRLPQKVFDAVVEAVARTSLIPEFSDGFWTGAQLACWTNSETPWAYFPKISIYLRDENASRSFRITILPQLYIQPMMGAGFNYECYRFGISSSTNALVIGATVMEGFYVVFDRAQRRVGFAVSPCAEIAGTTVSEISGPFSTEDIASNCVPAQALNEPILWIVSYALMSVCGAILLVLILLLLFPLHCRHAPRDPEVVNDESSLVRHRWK
Description: Assay for BACE Inhibition by Measuring Cellular TMEM27 Cleavage:
The assay uses the principle of inhibition of human TMEM27 cleavage by endogenous cellular BACE2 in the Ins 1e rat cell line and shedding from the cell surface into the culture medium, followed by detection in an ELISA assay. Inhibition of BACE2 prevents the cleavage and shedding in a dose-dependent manner.
The stable cell line “INS-TMEM27” represents an INSle-derived cell line with inducible expression (using the TetOn system) of full-length hTMEM27 in a doxycycline-dependent manner. The cells are cultured throughout the experiment in RPMI1640+Glutamax (Invitrogen) Penicillin/Streptomycin, 10% Fetal bovine serum, […], […], 100 micrograms/ml G418 and 100 microgram/ml hygromycin and are grown inadherent culture at 37° C. in a standard CO2 cell culture incubator.
INS-TMEM27 cells are seeded in 96-well plates. After 2 days in culture, BACE2 inhibitor is added in a range of concentrations as required by the assay and after a further two hours, doxycycline is added to a final concentration of 500 ng/ml. The cells are incubated for a further 46 hours and the supernatant harvested for detection of shed TMEM27.
An ELISA assay (using a pair of mouse anti-human-TMEM27 antibodies, raised against the extracellular domain of TMEM27) is used for detection of TMEM27 in the culture medium. An EC50 for BACE2 inhibition is calculated using the ELISA readout for each inhibitor concentration with standard curve-fitting software such as XLFit for the Excel spreadsheet program.

Row | IC50 [2] | Structure (SMILES) | IC50 [1]
1 | 14600 nM | C[C@]1(c2cc(NC(=O)c3ncc(C(N)=O)cc3F)ccc2F)N=C(N)COCC1(F)F [Example 1, (R)—N2-(3-(3-Amino-6,6-difluoro-5-methyl-2,5,6,7-tetrahydro-1,4-oxazepin-5-yl)-4-fluorophenyl)-3-fluoropyridine-2,5-dicarboxamide formate] | 350 nM
2 | 311 nM | C[C@]1(c2cc(NC(=O)c3ccc(C#CC4CC4)cn3)ccc2F)N=C(N)COCC1(F)F [Example 6, (R)—N-(3-(3-Amino-6,6-difluoro-5-methyl-2,5,6,7-tetrahydro-1,4-oxazepin-5-yl)-4-fluorophenyl)-5-(cyclopropylethynyl)picolinamide formate] | 20 nM
3 | 123 nM | C[C@]1(c2cc(NC(=O)c3ccc(C4CC4)cn3)ccc2F)N=C(N)COCC1(F)F [Example 7, (R)—N-(3-(3-Amino-6,6-difluoro-5-methyl-2,5,6,7-tetrahydro-1,4-oxazepin-5-yl)-4-fluorophenyl)-5-cyclopropylpicolinamide formate] | 25 nM
4 | 103 nM | CSc1cnc(C(=O)Nc2ccc(F)c([C@@]3(C)N=C(N)COCC3(F)F)c2)cn1 [Example 5, (R)—N-(3-(3-Amino-6,6-difluoro-5-methyl-2,5,6,7-tetrahydro-1,4-oxazepin-5-yl)-4-fluorophenyl)-5-(methylthio)pyrazine-2-carboxamide formate] | 10 nM
5 | 5730 nM | C[C@]1(c2cc(NC(=O)c3ccc(-c4nccs4)cn3)ccc2F)N=C(N)COCC1(F)F [Example 3, (R)—N-(3-(3-Amino-6,6-difluoro-5-methyl-2,5,6,7-tetrahydro-1,4-oxazepin-5-yl)-4-fluorophenyl)-5-(thiazol-2-yl)picolinamide formate] | 10 nM
6 | 662 nM | CC[C@]1(c2cc(NC(=O)c3ncoc3C3CC3)ccc2F)N=C(N)COCC1(F)F [Example 4, (R)—N-(3-(3-Amino-5-ethyl-6,6-difluoro-2,5,6,7-tetrahydro-1,4-oxazepin-5-yl)-4-fluorophenyl)-5-cyclopropyloxazole-4-carboxamide] | 2400 nM
7 | 837 nM | COCC#Cc1ccc(C(=O)Nc2ccc(F)c([C@@]3(C)N=C(N)COCC3(F)F)c2)nc1 [Example 8, (R)—N-(3-(3-Amino-6,6-difluoro-5-methyl-2,5,6,7-tetrahydro-1,4-oxazepin-5-yl)-4-fluorophenyl)-5-(3-methoxyprop-1-ynyl)picolinamide formate] | 70 nM
8 | 22.6 nM | C[C@]1(c2cc(NCC3CC3)ccc2F)N=C(N)COC[C@@H]1F [Example 9, (5R,6R)-5-(5-(Cyclopropylmethylamino)-2-fluorophenyl)-6-fluoro-5-methyl-2,5,6,7-tetrahydro-1,4-oxazepin-3-amine] | 28 nM

Source: patent US8815841B2, “1,4-Oxazepines as BACE1 and/or BACE2 inhibitors” (Hoffmann-La Roche Inc., priority 2011, dated 2014)
